US20070286823A1, “COMPOSITIONS HAVING ANTI-DENTAL CARIES FUNCTION” (Ezaki Glico Co., Ltd., priority 2001, published 2007)

Columns and labels:
[1] = remineralization test system using bovine tooth pieces (Example 3)
Method: The remineralization effect of a buffering agent may be examined by a known method, such as a remineralization test system using bovine tooth sections which is described in Inaba. D et al., Eur. J. Sci. 105:74-80, 1997; Inaba. D et al., J. Dent. Health. 47:67-74, 1997; and Iijima. Y et al., Dental Caries Research. 33:206-213, 1999.
This experiment was conducted basically in accordance with Inaba. D et al., Eur. J. Sci. 105:74-80, 1997; Inaba. D et al., J. Dent. Helth. 47:67-74, 1997; and Iijima. Y et al., Caries Research. 33:206-213, 1999.
Tooth pieces used in the experiment were prepared as follows: cubic bovine tooth pieces 3 mm per side were placed so that the enamel surfaces thereof are up. The pieces were covered with composite resin except for the enamel surfaces. The enamel was treated with wet abrasives and paper. Demineralization was conducted as follows: the tooth pieces were immersed in 1% lactate gel (pH 5.0) containing 6% carboxymethylcellulose gel at 37° C. for 3 weeks. Remineralization was conducted as follows: the tooth pieces subjected to demineralization were immersed in 20 mM 2-[4-(2-hydroxyethyl)]-1-piperidinylethane sulfonate (HEPES) buffer (pH 7.0) containing 1.5 mM CaCl2 and 0.9 mM KH2PO4 at 37° C. for one week.
After each treatment, a 200 μm-thick section was prepared from each treated tooth piece, and the mineral concentration distribution thereof was analyzed from the microradiographic images (not shown). […]
After each treatment, the calcium and phosphorus concentrations of the post-remineralization solution were also analyzed. The solution was centrifuged at 10,000 g for two minutes, and the supernatant was analyzed. The phosphorus concentration was determined by molybdic acid method (“Shin-ban Bunseki Kagaku Jikken [New Edition Analyical Chemistry Experiment] (1st ed.), pp. 313-314, published by Kagaku Dojin K. K.), and the calcium concentration was determined by OCPC method (manufactured by Wako Pure Chemicals: measured by a “calcium C test Wako” kit).

[2] = prior art; cited from earlier work
[3] = simple remineralization test system (hydroxyapatite, soluble calcium by OCPC method); details: for remineralization effect (FIG. 12): final concentration of 0.1%
Text: These conditions for easy remineralization are simplified as follows: in a system including hydroxyapatite, calcium and phosphorus are supplied for crystallization and soluble calcium is reduced; and in a system including no hydroxyapatite, phosphorus and calcium are not deposited and the high solubility thereof is maintained. Therefore, the magnitudes of the solubility of calcium in the two systems were compared to examine the remineralization effect. These simple test systems will be described below. […] For this method, there are the following constraints: a long time required for evaluation; a high-level experimental technique required; etc. Therefore, there is a demand for a simple evaluation system capable of quickly capturing changes in dentin mineral concentrations. Remineralization in an early dental caries lesion in the enamel of teeth is considered to develop via the following two processes:
This method comprises the steps of: (A) precipitating calcium in a solution containing phosphorus, calcium, and tooth components in the presence of the sample; (B) measuring a calcium concentration in the solution or the amount of the precipitated calcium after the precipitation; (C) precipitating calcium in the solution in the absence of the sample; (D) measuring a calcium concentration in the solution or the amount of the precipitated calcium after the precipitation; and (E) comparing calcium concentrations or the amounts of the precipitated calcium in steps (B) and (D). In a preferred embodiment, the above-described solution may contain hydroxyapatite, a buffer, KH2PO4 and CaCl2. The “tooth component” to be contained in the above-described solution is any material that precipitates phosphorus and calcium to produce hydroxyapatite due to remineralization. Use of hydroxyapatite is preferable. Alternatively, teeth of mammals such as a bovine, and sections or fractions thereof may be used. When the solution for calcium precipitation is prepared, the sequence of addition of the above-described phosphorus, calcium, and the other tooth components is not limited. Preferably, first the sample, then, phosphorus, calcium chloride solution, and the tooth component suspension or deionized water are added in this order to prepare the solution. The pH of the solution is preferably adjusted after the addition of KH2PO4. Calcium precipitation typically occurs by incubation at room temperature for ten and several hours to several days (preferably 10 hours to 7 days, more preferably 18 hours to 42 hours). The calcium solubility of the solution can be measured by any procedure known to those skilled in the art. The calcium solubility of the solution may be measured by OCPC method (using calcium C test Wako manufactured by Wako Pure Chemicals). Alternatively, the amount of precipitated calcium in the solution can be measured. The amount of precipitated calcium in the solution may be measured by any procedure known to those skilled in the art. The calcium solubility of the solution may be measured by any procedure known to those skilled in the art. Examples of such a method include the ICP method (Inductive Coupled Plasma method), atomic absorption analysis and an ion electrode method.
In order to examine the remineralization phenomenon in a more simple manner, conditions under which remineralization occurs more easily were simplified. In a system including hydroxyapatite, calcium and phosphorus are supplied for crystallization and soluble calcium is reduced. In contrast, in a system including no hydroxyapatite, calcium and phosphorus are not precipitated so that the solubility thereof is held at a high level. Based on these facts, the following test system was designed.

[4] = as above; details: 37° C., 8 days
S. mutans strain 8148 = assay: effect on fermentation of sucrose (pH of bacterial cell suspension); type: cell-based; details: 0.684% sugar added to 20% bacterial cell suspension; after 10 minutes
Method: S. mutans strain 8148 was incubated in 1,000 ml of brain heart infusion medium (manufactured by DIFCO Corporation) at 37° C. for 14 hours. Thereafter, the bacteria were collected by centrifugation at 6,000 rpm for 20 minutes. The bacteria was washed with phosphate buffered saline (PBS, pH 7.2), and suspended in the same PBS to 40% (v/v). To measure the pH, a reaction mixture (250 μl) was made of 125 μl of 40% bacterial cell suspension, 62.5 μl of 80 mM sucrose, and 62.5 μl of an aqueous solution containing various oligosaccharides (5% phosphorylated oligosaccharide sodium salt and phosphorylated oligosaccharide calcium salt). The pH of the reaction mixture was continuously measured with a pH meter (manufactured by Toa Denpa) while being incubated at 37° C.

[5] = remineralization solution + 2 ppm F, supernatant

With `F` [F, fluorine] the “lesion depth (FIG. 2)” value ([1]; demineralized bovine tooth pieces, remineralization solution + sample, 37° C., one week) was “the lesion depth was unchanged”, the “Ca (mM) of the post-remineralization solution” value [1, 5] was 0.73 mM and the “Pi (mM) of the post-remineralization solution” value [1, 5] was 0.41 mM. The “concentration at which sufficient efficacy is exerted (remineralization)” value [2] was “about 2 ppm”.
In the case of `O=C[C@H](O)[C@@H](O)[C@H](O)[C@H](O)COP(=O)(O)O` [glucose-6-phosphate], the “remineralization effect (FIG. 12)” value [3] is reported as “as good as or better than that of the phosphorylated oligosaccharide sodium salt”.
For `OC[C@H]1O[C@H](OC[C@H]2OC(O)(CO)[C@@H](O)[C@@H]2O)[C@H](O)[C@@H](O)[C@@H]1O` (stereo partly drawn) [palatinose, 6-O-α-D-Glucopyranosyl-D-Fructofuranose], the “sample concentration exhibiting a remineralization effect (FIGS. 7A to 7C)” value [4] was 20% and the “remineralization effect (FIG. 13)” value ([3]; 20% addition group) was “the remineralization effect as previously reported (as above) was confirmed”.
With `OC[C@@H](O)[C@@H](O)[C@H](O)[C@@H](O)CO` [sorbitol] the “remineralization effect (FIG. 13)” value ([3]; 20% addition group) was “the remineralization effect as previously reported (as above) was confirmed”.
For `OC[C@H]1O[C@@](CO)(O[C@H]2O[C@H](CO)[C@@H](O)[C@H](O)[C@H]2O)[C@@H](O)[C@@H]1O` [sucrose], the “pH of the reaction liquid” value (S. mutans strain 8148) was 4.0.
For `OC[C@@H](O)[C@H](O)[C@@H](O)CO` [xylitol], the “sample concentration exhibiting a remineralization effect (FIGS. 7A to 7C)” value [4] was 20%, the “remineralization effect (FIG. 13)” value ([3]; 20% addition group) was “the remineralization effect as previously reported (as above) was confirmed” and the “effect of xylitol (remineralization)” value ([3]; statement in the background referring to the Examples) was “not substantially confirmed”.
In the case of `O=C[C@H](O)[C@@H](O)[C@H](O)CO` [xylose], the “remineralization percentage (FIG. 7B)” value ([3]; 37° C., 8 days) is reported as “low at any concentration”.
For “chondroitin sulfate C [chondroitin sulfate C sodium salt]”, the “remineralization effect (FIG. 12)” value [3] was “as good as or better than that of the phosphorylated oligosaccharide sodium salt”.
For dermatan sulfate, the “remineralization effect (FIG. 13)” value ([3]; final concentration of 0.2%) was “confirmed to have the remineralization effect”.
With palatinit the “sample concentration exhibiting a remineralization effect (FIGS. 7A to 7C)” value [4] was 20%.
